Active and inactive are the calls of the source. The calls are words filed in the database; no cut-off is given here.
Tests used:
Huh-7 [1] = experiment: Induction of apoptosis in human HuH7 cells transfected with ShSGK1 assessed as late apoptosis at 100 uM incubated for 48 hrs by annexin V and 7-AAD staining based assay; format: functional, cell-based
Huh-7 [2] = experiment: Induction of apoptosis in human HuH7 cells assessed as increase in late apoptotic cells at 100 uM incubated for 48 hrs by annexin V and 7-AAD staining based assay; format: functional, cell-based
Huh-7 [3] = experiment: Induction of apoptosis in human HuH7 cells assessed as increase in necrotic cells at 100 uM incubated for 48 hrs by annexin V and 7-AAD staining based assay; format: functional, cell-based
[4] = target: T1, Serine/threonine-protein kinase Sgk1 (Homo sapiens) (UniProt O00141); experiment: Inhibition of recombinant human N-terminal His-tagged SGK1 at 50 uM using (GRPRTSSFAEGKK) peptide as substrate incubated for 30 mins in presence of [32P] gamma ATP by scintillation counter method
T1 sequence (whole entry): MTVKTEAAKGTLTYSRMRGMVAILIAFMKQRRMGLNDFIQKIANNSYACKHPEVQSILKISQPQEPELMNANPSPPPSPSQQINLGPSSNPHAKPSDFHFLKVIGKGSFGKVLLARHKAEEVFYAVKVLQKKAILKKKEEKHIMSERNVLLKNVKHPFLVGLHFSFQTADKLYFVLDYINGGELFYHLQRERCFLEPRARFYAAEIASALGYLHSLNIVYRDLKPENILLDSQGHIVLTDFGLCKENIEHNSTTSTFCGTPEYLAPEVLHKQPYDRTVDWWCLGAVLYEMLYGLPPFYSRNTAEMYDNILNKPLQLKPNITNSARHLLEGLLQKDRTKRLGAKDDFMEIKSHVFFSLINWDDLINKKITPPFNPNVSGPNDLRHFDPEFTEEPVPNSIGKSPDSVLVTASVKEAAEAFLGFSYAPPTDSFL

[5] = target: T1, Serine/threonine-protein kinase Sgk1 (Homo sapiens); experiment: Inhibition of recombinant human N-terminal His-tagged SGK1 using (GRPRTSSFAEGKK) peptide as substrate incubated for 30 mins in presence of [32P] gamma ATP by scintillation counter method
Huh-7 [6] = experiment: Antiproliferative activity against human HuH7 cells overexpressing EGFP assessed as reduction in cell viability at 100 uM incubated for 48 hrs by trypan blue dye based assay; format: functional
[7] = target: T1, Serine/threonine-protein kinase Sgk1 (Homo sapiens); experiment: Inhibition of insulin-induced SGK1 in human HUH7 cells at 100 uM using peptide as substrate incubated for 6 hrs by scintillation counter method; format: cell-based
Huh-7 [8] = experiment: Antiproliferative activity against human HuH7 cells overexpressing SGK1 assessed as reduction in cell viability at 100 uM incubated for 48 hrs by trypan blue dye based assay; format: functional
Huh-7 [9] = experiment: Induction of apoptosis in human HuH7 cells overexpressing EGFP at 100 uM incubated for 48 hrs by annexin V and 7-AAD staining based assay; format: functional, cell-based
Huh-7 [10] = experiment: Antiproliferative activity against human HuH7 cells transfected with ShSGK1 assessed as reduction in cell viability at 100 uM incubated for 48 hrs by trypan blue dye based assay; format: functional
Huh-7 [11] = experiment: Antiproliferative activity against human HuH7 cells assessed as reduction in cell viability at 100 uM incubated for 48 hrs by trypan blue dye based assay; format: functional
Huh-7 [12] = experiment: Induction of apoptosis in human HuH7 cells transfected with ShSGK1 assessed as early apoptosis at 100 uM incubated for 48 hrs by annexin V and 7-AAD staining based assay; format: functional, cell-based
Huh-7 [13] = experiment: Induction of apoptosis in human HuH7 cells assessed as increase in early apoptotic cells at 100 uM incubated for 48 hrs by annexin V and 7-AAD staining based assay; format: functional, cell-based
[14] = target: T1, Serine/threonine-protein kinase Sgk1 (Homo sapiens); experiment: Inhibition of SGK1 in human HUH7 cells at 100 uM using peptide as substrate incubated for 6 hrs by scintillation counter method; format: cell-based
[15] = target: T1, Serine/threonine-protein kinase Sgk1 (Homo sapiens); experiment: Inhibition of SGK1 in human HuH7 cells assessed as reduction in insulin-induced MDM2 phosphorylation on Ser166 at 100 uM incubated for 6 hrs by Western blot analysis; format: cell-based
Huh-7 [16] = experiment: Induction of apoptosis in human HuH7 cells overexpressing SGK1 at 100 uM incubated for 48 hrs by annexin V and 7-AAD staining based assay; format: functional, cell-based

## Oc1ccc(/C=C/c2cc(O)cc(O)c2)cc1
Huh-7 [1]
  Activity: Active
Huh-7 [2]
  Activity: Active
Huh-7 [3]
  Activity: Active
[4]
  inhibition: 50%
[5]
  inhibition: Dose-dependent effect
Huh-7 [6]
  Activity: Active
[7]
  inhibition: Active
Huh-7 [8]
  Activity: inactive
Huh-7 [9]
  Activity: Active
Huh-7 [10]
  Activity: Active
Huh-7 [11]
  Activity: Active
Huh-7 [12]
  Activity: Active
Huh-7 [13]
  Activity: Active
[14]
  inhibition: inactive
[15]
  inhibition: Active
Huh-7 [16]
  Activity: inactive

Source: ChEMBL document CHEMBL4406850, “Review about the multi-target profile of resveratrol and its implication in the SGK1 inhibition” (Eur J Med Chem, 2019)
